From paper PMC9575579 (European Journal of Medicinal Chemistry, 2022)
Marks after values point to notes of the source that are not given here.

Assays:
SARS-CoV-2 = assay: microbe, parasite or virus in culture; conditions: for EC50: Severe acute respiratory syndrome coronavirus 2, Vero, 72 h
Vero E6-GFP cells = conditions: African green monkey, 2 µM
SARS-CoV-2 M^pro = SARS-CoV-2 M^pro (Severe acute respiratory syndrome coronavirus 2, UniProt P0DTD1); assay: biochemical; format: biochemical; conditions: for IC50: M^pro SARS-COV-2 IC50
MERS-CoV M^pro = MERS-CoV M^pro (Middle East respiratory syndrome-related coronavirus, UniProt K9N7C7); assay: biochemical; conditions: for inhibition at 30 µM: read-out: % of inhibition of the M^pro at 30 μM (MERS)
MERS-CoV M^pro, sequence (K9N7C7 3248-3553 limits assumed): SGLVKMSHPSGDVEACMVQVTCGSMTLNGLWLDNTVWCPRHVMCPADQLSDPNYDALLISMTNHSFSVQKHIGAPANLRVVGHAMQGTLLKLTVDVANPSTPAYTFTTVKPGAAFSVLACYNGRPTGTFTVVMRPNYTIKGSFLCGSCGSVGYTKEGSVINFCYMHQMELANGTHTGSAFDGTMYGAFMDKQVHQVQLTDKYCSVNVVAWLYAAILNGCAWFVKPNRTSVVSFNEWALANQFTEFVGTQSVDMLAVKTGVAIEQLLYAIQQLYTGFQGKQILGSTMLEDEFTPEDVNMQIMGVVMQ

## O=C(NCCc1ccccc1)C(=O)[C@H](C[C@@H]1CCNC1=O)NC(=O)[C@@H]1CCCN1C(=O)OCc1ccccc1 [9a, (S)-benzyl2-((S)-3,4-dioxo-1-((S)-2-oxopyrrolidin-3-yl)-4-(phenethylamino)butan-2ylcarbamoyl)pyrrolidine-1-carboxylate]
SARS-CoV-2
  EC50 + CP100356 (2 μM): did not change
Vero E6-GFP cells
  Residual cell viability at the highest concentration tested: >100 (100%) ^e

## O=C(NCCc1ccccc1F)C(=O)[C@H](C[C@@H]1CCNC1=O)NC(=O)[C@@H]1CCCN1C(=O)OCc1ccccc1 [9b, (S)-benzyl2-((S)-4-(2-fluorophenethylamino)-3,4-dioxo-1-((S)-2-oxopyrrolidin-3-yl)butan-2-ylcarbamoyl)pyrrolidine-1-carboxylate]
SARS-CoV-2 M^pro
  M^pro SARS-COV-2 IC50: submicromolar range

## COc1ccccc1CCNC(=O)C(=O)[C@H](C[C@@H]1CCNC1=O)NC(=O)[C@@H]1CCCN1C(=O)OCc1ccccc1 [9c, (S)-benzyl2-((S)-4-(2-methoxyphenethylamino)-3,4-dioxo-1-((S)-2-oxopyrrolidin-3-yl)butan-2-ylcarbamoyl)pyrrolidine-1-carboxylate]
SARS-CoV-2 M^pro
  M^pro SARS-COV-2 IC50: submicromolar range

## O=C(NCc1ccccc1)C(=O)[C@H](C[C@@H]1CCNC1=O)NC(=O)[C@@H]1CCCN1C(=O)COc1ccc(Cl)cc1Cl [9d, (S)–N-((S)-4-(benzylamino)-3,4-dioxo-1-((S)-2-oxopyrrolidin-3-yl)butan-2-yl)-1-(2-(2,4-dichlorophenoxy)acetyl)pyrrolidine-2-carboxamide]
Vero E6-GFP cells
  Residual cell viability at the highest concentration tested: >100 (100%) ^e

## O=C(NCCc1ccccc1)C(=O)[C@H](C[C@@H]1CCNC1=O)NC(=O)[C@@H]1CCCN1C(=O)COc1ccc(Cl)cc1Cl [9e, (S)-1-(2-(2,4-dichlorophenoxy)acetyl)-N-((S)-3,4-dioxo-1-((S)-2-oxopyrrolidin-3-yl)-4-(phenethylamino)butan-2-yl)pyrrolidine-2-carboxamide]
Vero E6-GFP cells
  Residual cell viability at the highest concentration tested: >100 (100%) ^e

## COc1ccc(CNC(=O)C(=O)[C@H](C[C@@H]2CCNC2=O)NC(=O)[C@@H]2CCCN2C(=O)COc2ccc(Cl)cc2Cl)c(OC)c1 [9f, (S)-1-(2-(2,4-dichlorophenoxy)acetyl)-N-((S)-4-(2,4-dimethoxybenzylamino)-3,4-dioxo-1-((S)-2-oxopyrrolidin-3-yl)butan-2-yl)pyrrolidine-2-carboxamide]
SARS-CoV-2 M^pro
  IC50: 1.93 ± 0.16 µM
SARS-CoV-2
  EC50: > 100 µM
MERS-CoV M^pro
  IC50: > 30 µM
  inhibition at 30 µM: 59%

## O=C(NCc1ccccc1C(F)(F)F)C(=O)[C@H](C[C@@H]1CCNC1=O)NC(=O)[C@@H]1CCCN1C(=O)COc1ccc(Cl)cc1Cl [9h, (S)-1-(2-(2,4-dichlorophenoxy)acetyl)-N-((S)-3,4-dioxo-1-((S)-2-oxopyrrolidin-3-yl)-4-(2-(trifluoromethyl)benzylamino)butan-2-yl)pyrrolidine-2-carboxamide]
SARS-CoV-2 M^pro
  IC50: > 30 µM
SARS-CoV-2 M^pro; read-out: % of inhibition of the M^pro at 30 μM (SARS-CoV-2)
  inhibition at 30 µM: 57%
SARS-CoV-2
  EC50: > 100 µM
MERS-CoV M^pro
  IC50: > 30 µM
  inhibition at 30 µM: 73%
